For one data set, the target named is OAT1 (Homo sapiens, UniProt Q4U2R8). In words: Transporter substrate, OAT1. The class given is in vitro ADME. The note with it: role: substrate. As for the experimental part: (§1) Additionally, compound 760 was tested for its capability to act as a transporter substrate for various transporters, and was not found to be a transporter substrate for any of the tested transporters.

The next data set concerns MATE2-K. Description: Transporter substrate, MATE2-K. The class given is in vitro ADME. The note with it: role: substrate. The method, then:
as §1

A further data set concerns the target OAT3 (Homo sapiens, UniProt Q8TCC7). Description: Transporter substrate, OAT3. Type of data set: in vitro ADME. The note with it: role: substrate. As for the experimental part:
as §1

The target in a further data set is P-gp (Homo sapiens, UniProt P08183). In words: Transporter substrate, P-gp. To be noted: role: substrate. Type of data set: in vitro ADME. As for the experimental part:
as §1

Another data set relates to rats. In words: Chronic 5-day BID exposure. The class given is in vivo, rat. The note with it: up to 300 mg/kg BID, oral.
In data set [1] the test system is Salmonella typhimurium (TA98, TA100, TA1535, TA1537) and Escherichia coli WP2uvrA (pKM101). In words: Mini-Ames assay. Type of data set: cell-based. The note with it: 5 strains, with and without S9. The method, then:
The Mini-Ames assay was performed according to the regulatory guidelines. In brief, 5 strains were selected for testing: Salmonella typhimurium (TA98, TA100, TA1535, TA1537) and Escherichia coli WP2uvrA (pKM101). A standard six-well culture plate with top agar containing 0.6% (w/v) agar and 0.5% (w/v) sodium chloride was supplemented with 0.5 mM D-biotin and 0.5 mM L-histidine for Salmonella typhimurium strains or 0.5 mM D-biotin and 0.5 mM L-tryptophan for Escherichia coli WP2uvrA (pKM101). […] Average number of revertants for each dose group condition was compared to negative control, and cytotoxicity and precipitates were recorded.
A general note: The Ames test uses bacterial strains that need an amino acid and regain growth without it when mutated back.

A further data set concerns NMDA. Description: Functional selectivity panel, NMDA. The class given is biochemical. To be noted: up to 10 micromolar. The method, then: (§2) A broad panel of 78 recombinant targets was tested for pharmacologic activity in vitro through a variety of functional assays (Eurofins DiscoverX, USA), as part of the National Institute of Neurological Disorders and Stroke (NINDS) Preclinical Screening Platform for Pain (PSPP) program. The biological targets for the in vitro profiling have been selected based on avoiding opioid receptor stimulation and targets known to be associated with adverse events or targeted by drugs of abuse. […] For each test, a reference compound was evaluated at the target of interest as a positive control.

The subject of a further data set is MIA-OA rats. In words: Dynamic weight bearing in MIA-OA rats. Type of data set: in vivo, rat. The note with it: 100 mg/kg (naproxen 30 mg/kg), 6 hours post-dose. The method, then: Monosodium iodoacetate-induced osteoarthritis (MIA-OA): The animals were anaesthetized using an Isoflurane+O2 mixture. Then 50 μl of MIA at a concentration of 60 mg/mL was injected into the right knee joint using a 30 G needle. On study days 13 and 14 following MIA injection, the animals' dynamic weight bearing and response to von Frey filaments were measured.
Dynamic Weight Bearing (DWB): DWB study was performed using the DWB2 apparatus (Bioseb, Paris, France). The rats were placed in a transparent cage containing a matrix comprising around 2000 high-precision force sensors embedded in its floor where they were allowed to move freely. The force sensors measured the weight distribution on each of the four paws of the animal in grams. The animal was filmed from above using a high-definition camera, and the video feed was analyzed in real-time during the test using tracking software, allowing a precise analysis of the animal's posture and hind paws identification. Out of 5 minutes of animal behavior recording, a segment of 2 minutes was analyzed. Once the analysis was completed, the software provided the weight distribution of each hind paw as the main readout and the ratio between the injured and intact hind paws was then calculated.

The test system of data set [2] is Chronic Post-Ischemia Pain (CPIP) rats. Description: Chronic Post-Ischemia Pain (CPIP) model, von Frey. To be noted: 100 mg/kg oral, 6 hours post-dose. Type of data set: in vivo, rat. The method, then:
All animal experiments were carried out according to the Guide for the Care and Use of Laboratory Animals (2011 edition) and approved by the Israel National Institutional Animal Care and Use Committee (IACUC). Young adult male SD rats (Envigo RMS, Israel), were used for in vivo efficacy: Spared Nerve Injury (SNI), Distal Tibial Injury (DTI) and Post-operative Pain (POP), 200-220 grams, Chronic Post-Ischemia Pain (CPIP) 275-325 grams, Monosodium iodoacetate-induced osteoarthritis (MIA-OA) 180-220 grams; for in vivo safety: 200-250 grams at study initiation. […] The health status of the animals used in this study was examined upon their arrival. Only animals in good health were acclimatized to laboratory conditions and were used in the studies. All studies were performed following at least five days of animal acclimation. During acclimation and throughout the entire study duration, animals were housed within a limited-access rodent facility and kept in groups with a maximum of 2-3 rats per polypropylene cage. The cages were fitted with solid bottoms and filled with sterile wood shavings as bedding material. […] Water was monitored periodically. […]
On study day 14, the animal's response to von Frey filaments was measured. […]

Another data set deals with 78 recombinant targets. Description: In-vitro selectivity panel, 78 targets. To be noted: all 9 modulated targets of 78. The method, then:
as §2
In addition, based on efficacious exposures in vivo, the separation from other targets is still greater than 1000-fold, further supporting the specificity of the compound's MOA.

From patent US20260327211A1, “MODULATORS OF A POTASSIUM CHANNEL AND OF TRPV1 CHANNEL AND USES THEREOF” (Bsense Bio Therapeutics Ltd., priority 2023, published 2026) come the findings set out here.

Molecules are shown by their SMILES.

Sequence of OAT3 (Q8TCC7 whole entry): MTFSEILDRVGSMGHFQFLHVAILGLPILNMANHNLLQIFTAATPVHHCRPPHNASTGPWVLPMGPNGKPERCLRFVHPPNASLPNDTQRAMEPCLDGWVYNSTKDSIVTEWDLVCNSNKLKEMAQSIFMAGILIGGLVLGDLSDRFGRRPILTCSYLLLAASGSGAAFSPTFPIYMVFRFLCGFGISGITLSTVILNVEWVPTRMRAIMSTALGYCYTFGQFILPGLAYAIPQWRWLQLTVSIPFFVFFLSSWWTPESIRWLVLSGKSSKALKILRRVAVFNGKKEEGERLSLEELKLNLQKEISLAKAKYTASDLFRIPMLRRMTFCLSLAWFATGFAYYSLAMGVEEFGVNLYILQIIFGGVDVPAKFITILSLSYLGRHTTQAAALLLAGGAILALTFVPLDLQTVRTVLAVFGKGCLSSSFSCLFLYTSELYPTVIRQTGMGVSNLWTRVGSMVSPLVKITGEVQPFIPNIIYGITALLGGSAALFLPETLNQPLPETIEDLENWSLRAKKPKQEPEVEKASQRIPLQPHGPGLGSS
Sequence of OAT1 (Q4U2R8 whole entry): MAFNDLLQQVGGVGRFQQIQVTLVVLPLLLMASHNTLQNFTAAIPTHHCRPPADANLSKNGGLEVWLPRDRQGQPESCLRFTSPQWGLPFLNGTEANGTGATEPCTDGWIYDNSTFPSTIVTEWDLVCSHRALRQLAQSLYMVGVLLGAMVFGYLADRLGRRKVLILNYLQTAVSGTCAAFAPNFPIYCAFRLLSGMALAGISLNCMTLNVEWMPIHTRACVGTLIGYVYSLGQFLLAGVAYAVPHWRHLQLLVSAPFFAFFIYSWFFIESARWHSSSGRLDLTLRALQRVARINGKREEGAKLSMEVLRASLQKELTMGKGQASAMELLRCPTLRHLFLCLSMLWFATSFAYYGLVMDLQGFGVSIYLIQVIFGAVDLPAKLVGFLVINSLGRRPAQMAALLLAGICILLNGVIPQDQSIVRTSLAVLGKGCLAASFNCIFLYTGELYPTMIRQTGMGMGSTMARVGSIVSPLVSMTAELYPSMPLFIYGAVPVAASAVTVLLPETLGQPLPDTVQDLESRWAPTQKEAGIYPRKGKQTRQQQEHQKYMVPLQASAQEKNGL
Sequence of P-gp (P08183 whole entry): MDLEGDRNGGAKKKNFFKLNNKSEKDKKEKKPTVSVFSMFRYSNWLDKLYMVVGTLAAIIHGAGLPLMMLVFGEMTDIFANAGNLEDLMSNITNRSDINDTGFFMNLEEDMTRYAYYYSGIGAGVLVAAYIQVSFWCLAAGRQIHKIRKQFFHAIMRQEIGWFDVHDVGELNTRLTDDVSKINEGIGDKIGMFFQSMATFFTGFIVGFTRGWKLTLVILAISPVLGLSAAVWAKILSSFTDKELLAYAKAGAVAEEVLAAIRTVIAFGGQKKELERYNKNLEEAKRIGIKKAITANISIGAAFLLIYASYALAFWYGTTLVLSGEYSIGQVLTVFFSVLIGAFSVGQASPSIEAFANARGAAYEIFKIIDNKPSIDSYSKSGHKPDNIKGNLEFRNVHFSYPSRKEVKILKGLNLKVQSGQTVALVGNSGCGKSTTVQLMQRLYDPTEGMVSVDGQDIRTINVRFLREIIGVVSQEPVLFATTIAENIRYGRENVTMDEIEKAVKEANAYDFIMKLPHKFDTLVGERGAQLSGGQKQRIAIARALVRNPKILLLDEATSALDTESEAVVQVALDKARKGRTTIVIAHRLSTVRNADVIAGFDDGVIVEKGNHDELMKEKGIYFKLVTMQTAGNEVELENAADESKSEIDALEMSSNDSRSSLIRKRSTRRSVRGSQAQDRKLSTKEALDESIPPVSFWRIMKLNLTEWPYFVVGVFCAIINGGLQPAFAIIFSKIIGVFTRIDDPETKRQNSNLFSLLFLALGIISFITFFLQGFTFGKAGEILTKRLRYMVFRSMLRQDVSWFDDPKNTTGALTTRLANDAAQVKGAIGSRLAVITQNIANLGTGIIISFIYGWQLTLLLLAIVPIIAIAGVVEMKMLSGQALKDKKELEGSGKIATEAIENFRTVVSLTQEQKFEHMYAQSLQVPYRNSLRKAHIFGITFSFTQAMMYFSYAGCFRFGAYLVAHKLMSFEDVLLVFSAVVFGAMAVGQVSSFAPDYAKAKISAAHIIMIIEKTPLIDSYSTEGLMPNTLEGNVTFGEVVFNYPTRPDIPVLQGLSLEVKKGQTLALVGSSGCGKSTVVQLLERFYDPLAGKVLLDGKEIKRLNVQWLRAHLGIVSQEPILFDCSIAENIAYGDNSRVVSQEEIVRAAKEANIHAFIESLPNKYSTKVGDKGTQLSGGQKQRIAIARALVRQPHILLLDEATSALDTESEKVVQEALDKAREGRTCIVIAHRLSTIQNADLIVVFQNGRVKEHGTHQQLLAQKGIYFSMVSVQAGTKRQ

For `O=C(Cc1nccc(-n2cc(Cl)c3cc(Cl)cc(Cl)c32)n1)NC1COCC1O` (centres unmarked) [Compound 760], the OAT1 substrate result at OAT1 was “not a transporter substrate”. The MATE2-K substrate entry with MATE2-K is “not a transporter substrate”. In addition, the OAT3 substrate entry on OAT3 is reported as “not a transporter substrate”. For the same compound, the P-gp substrate result on P-gp is recorded as “not a transporter substrate or a poor substrate”. Moreover, the “Gross safety, 5-day BID” value with rats is “did not raise any gross safety concerns”. In [1], the “Cytotoxic effect in Ames strains” value was “No significant cytotoxic effect” and the “Reversion rates” value is on record as “did not induce substantial dose-dependent increases in reversion rates”. Also, in the data set on NMDA, the “Effect on NMDA” value is on record as “no effect”.
In the case of `O=C(Cc1cncc(-n2cc(Cl)c3cc(Cl)cc(Cl)c32)c1)N[C@@H]1COC[C@H]1O` [Compound 661], in the data set with MIA-OA rats, the “Reversal of weight bearing changes” value amounted to 44%. Moreover, the “Reversal of mechanical PWT” value in [2] is reported as 27.6%. For the same compound, in the data set on 78 recombinant targets, the IC50 (commonly the concentration at which inhibition is half-maximal) is greater than 1.4 µM.
